Results reported in patent publication US20180184655A1 (priority 2011, published 2018).

System: Phytophthora infestans
Format: in vivo, Phytophthora infestans on Potato
Conditions: Potato field trial, France 2010, 6 foliar sprays, fluopicolide 75 g a.s./ha, cyazofamid 60 g a.s./ha, adjuvant 150 ml/ha

SMILES: O=C(NCc1ncc(C(F)(F)F)cc1Cl)c1c(Cl)cccc1Cl [Fluopicolide, 2,6-dichloro-N-[3-chloro-5-(trifluoromethyl)-2-pyridylmethyl]benzamide]
- Efficacy (Abbott values) (29 days after last application): 18.3%
- Late blight severity on leaves (assessed 29 days after last application, mean values, untreated reference 100%): 81.7%
